Assay results: the NIST ThermoML archive (doi:10.1021/je400783h)

Details: for surface tension liquid-gas: Drop volume; for viscosity / speed of sound / mass density / vapor or sublimation pressure: Liquid; for viscosity: Capillary tube (Ostwald / Ubbelohde) method; for speed of sound: Pulse-echo method; for vapor or sublimation pressure: Ebulliometric method (Recirculating still)

Cc1ccc(C=O)o1 [5-methylfurfural]
Details	surface tension liquid-gas [mN/m]	vapor or sublimation pressure [kPa]
278.15 K	43.02	–
280.65 K	42.75	–
283.15 K	42.37	–
285.65 K	42.13	–
288.15 K	41.8	–
290.65 K	41.46	–
293.15 K	41.2	–
295.65 K	40.9	–
298.15 K	40.61	–
300.65 K	40.22	–
303.15 K	39.95	0.1
305.65 K	39.66	–
308.15 K	39.32	0.15
310.65 K	39.04	–
313.15 K	38.75	0.2
315.65 K	38.44	–
318.15 K	38.13	0.3
320.65 K	37.78	–
323.15 K	37.51	0.4
325.65 K	37.26	–
328.15 K	36.91	0.54
330.65 K	36.54	–
333.15 K	36.21	0.74
335.65 K	35.92	–
338.15 K	35.57	0.97
343.15 K	–	1.3
348.15 K	–	1.66
353.15 K	–	2.17
358.15 K	–	2.76
363.15 K	–	3.52
368.15 K	–	4.4
373.15 K	–	5.52
378.15 K	–	6.79
383.15 K	–	8.43
388.15 K	–	10.2
393.15 K	–	12.31
398.15 K	–	15
403.15 K	–	18
408.15 K	–	21.27
413.15 K	–	25.33
418.15 K	–	30.01
423.15 K	–	34.95
428.15 K	–	40.57
433.15 K	–	47.43
438.15 K	–	55.14
443.15 K	–	63.39
448.15 K	–	72.37
453.15 K	–	83.4

Details	mass density [kg/m3]	speed of sound [m/s]	viscosity [mPa·s]
278.15 K, 101.33 kPa	–	1521	3.164
280.65 K, 101.33 kPa	–	1511.8	2.974
283.15 K, 100 kPa	1118.02	–	–
283.15 K, 101.33 kPa	–	1502.5	2.764
283.15 K, 2500 kPa	1119.83	–	–
283.15 K, 5000 kPa	1121.37	–	–
283.15 K, 7500 kPa	1122.65	–	–
283.15 K, 10000 kPa	1124.02	–	–
283.15 K, 20000 kPa	1129.41	–	–
283.15 K, 30000 kPa	1134.53	–	–
283.15 K, 40000 kPa	1139.44	–	–
283.15 K, 50000 kPa	1144.14	–	–
283.15 K, 60000 kPa	1148.58	–	–
285.65 K, 101.33 kPa	–	1493.2	2.628
288.15 K, 100 kPa	1113.09	–	–
288.15 K, 101.33 kPa	–	1484	2.443
288.15 K, 2500 kPa	1114.82	–	–
288.15 K, 5000 kPa	1116.39	–	–
288.15 K, 7500 kPa	1117.87	–	–
288.15 K, 10000 kPa	1119.23	–	–
288.15 K, 20000 kPa	1124.75	–	–
288.15 K, 30000 kPa	1129.99	–	–
288.15 K, 40000 kPa	1134.99	–	–
288.15 K, 50000 kPa	1139.79	–	–
288.15 K, 60000 kPa	1144.31	–	–
290.65 K, 101.33 kPa	–	1474.7	2.297
293.15 K, 100 kPa	1108.15	–	–
293.15 K, 101.33 kPa	–	1465.5	2.175
293.15 K, 2500 kPa	1110.03	–	–
293.15 K, 5000 kPa	1111.5	–	–
293.15 K, 7500 kPa	1112.96	–	–
293.15 K, 10000 kPa	1114.4	–	–
293.15 K, 20000 kPa	1120.15	–	–
293.15 K, 30000 kPa	1125.46	–	–
293.15 K, 40000 kPa	1130.57	–	–
293.15 K, 50000 kPa	1135.4	–	–
293.15 K, 60000 kPa	1140.08	–	–
295.65 K, 101.33 kPa	–	1456.3	2.056
298.15 K, 100 kPa	1103.2	–	–
298.15 K, 101.33 kPa	–	1447	1.948
298.15 K, 2500 kPa	1104.82	–	–
298.15 K, 5000 kPa	1106.62	–	–
298.15 K, 7500 kPa	1108.34	–	–
298.15 K, 10000 kPa	1109.63	–	–
298.15 K, 20000 kPa	1115.43	–	–
298.15 K, 30000 kPa	1120.97	–	–
298.15 K, 40000 kPa	1126.15	–	–
298.15 K, 50000 kPa	1131.12	–	–
298.15 K, 60000 kPa	1135.84	–	–
300.65 K, 101.33 kPa	–	1437.8	1.853
303.15 K, 100 kPa	1098.25	–	–
303.15 K, 101.33 kPa	–	1428.7	1.757
303.15 K, 2500 kPa	1100.71	–	–
303.15 K, 5000 kPa	1101.81	–	–
303.15 K, 7500 kPa	1103.11	–	–
303.15 K, 10000 kPa	1104.89	–	–
303.15 K, 20000 kPa	1110.81	–	–
303.15 K, 30000 kPa	1116.44	–	–
303.15 K, 40000 kPa	1121.72	–	–
303.15 K, 50000 kPa	1126.87	–	–
303.15 K, 60000 kPa	1131.66	–	–
305.65 K, 101.33 kPa	–	1419.6	1.674
308.15 K, 100 kPa	1093.29	–	–
308.15 K, 101.33 kPa	–	1410.5	1.598
308.15 K, 2500 kPa	1095.01	–	–
308.15 K, 5000 kPa	1096.9	–	–
308.15 K, 7500 kPa	1098.15	–	–
308.15 K, 10000 kPa	1100.06	–	–
308.15 K, 20000 kPa	1106.17	–	–
308.15 K, 30000 kPa	1111.86	–	–
308.15 K, 40000 kPa	1117.24	–	–
308.15 K, 50000 kPa	1122.38	–	–
308.15 K, 60000 kPa	1127.34	–	–
310.65 K, 101.33 kPa	–	1401.4	1.527
313.15 K, 100 kPa	1088.32	–	–
313.15 K, 101.33 kPa	–	1392.3	1.461
313.15 K, 2500 kPa	1090.31	–	–
313.15 K, 5000 kPa	1092.06	–	–
313.15 K, 7500 kPa	1093.64	–	–
313.15 K, 10000 kPa	1095.27	–	–
313.15 K, 20000 kPa	1101.5	–	–
313.15 K, 30000 kPa	1107.37	–	–
313.15 K, 40000 kPa	1112.86	–	–
313.15 K, 50000 kPa	1118.1	–	–
313.15 K, 60000 kPa	1123.12	–	–
315.65 K, 101.33 kPa	–	1383.3	1.402
318.15 K, 100 kPa	1083.33	–	–
318.15 K, 101.33 kPa	–	1374.3	1.345
318.15 K, 2500 kPa	1085.42	–	–
318.15 K, 5000 kPa	1087.05	–	–
318.15 K, 7500 kPa	1088.71	–	–
318.15 K, 10000 kPa	1090.41	–	–
318.15 K, 20000 kPa	1096.72	–	–
318.15 K, 30000 kPa	1102.74	–	–
318.15 K, 40000 kPa	1108.39	–	–
318.15 K, 50000 kPa	1113.73	–	–
318.15 K, 60000 kPa	1118.89	–	–
320.65 K, 101.33 kPa	–	1365.3	1.292
323.15 K, 100 kPa	1078.33	–	–
323.15 K, 101.33 kPa	–	1356.1	1.241
323.15 K, 2500 kPa	1080.39	–	–
323.15 K, 5000 kPa	1082.17	–	–
323.15 K, 7500 kPa	1083.95	–	–
323.15 K, 10000 kPa	1085.56	–	–
323.15 K, 20000 kPa	1092.07	–	–
323.15 K, 30000 kPa	1098.22	–	–
323.15 K, 40000 kPa	1104.01	–	–
323.15 K, 50000 kPa	1109.47	–	–
323.15 K, 60000 kPa	1114.68	–	–
325.65 K, 101.33 kPa	–	1347.3	1.202
328.15 K, 100 kPa	1073.32	–	–
328.15 K, 101.33 kPa	–	1338.4	1.151
328.15 K, 2500 kPa	1075.43	–	–
328.15 K, 5000 kPa	1077.24	–	–
328.15 K, 7500 kPa	1079.03	–	–
328.15 K, 10000 kPa	1080.7	–	–
328.15 K, 20000 kPa	1087.38	–	–
328.15 K, 30000 kPa	1093.64	–	–
328.15 K, 40000 kPa	1099.55	–	–
328.15 K, 50000 kPa	1105.14	–	–
328.15 K, 60000 kPa	1110.48	–	–
330.65 K, 101.33 kPa	–	1329.5	1.11
333.15 K, 100 kPa	1068.3	–	–
333.15 K, 101.33 kPa	–	1320.5	1.072
333.15 K, 2500 kPa	1070.05	–	–
333.15 K, 5000 kPa	1072.29	–	–
333.15 K, 7500 kPa	1074.1	–	–
333.15 K, 10000 kPa	1075.84	–	–
333.15 K, 20000 kPa	1082.66	–	–
333.15 K, 30000 kPa	1089.1	–	–
333.15 K, 40000 kPa	1095.12	–	–
333.15 K, 50000 kPa	1100.86	–	–
333.15 K, 60000 kPa	1106.23	–	–
335.65 K, 101.33 kPa	–	1311.6	1.039
338.15 K, 100 kPa	1063.25	–	–
338.15 K, 101.33 kPa	–	1302.8	1.002
338.15 K, 2500 kPa	1065.43	–	–
338.15 K, 5000 kPa	1067.33	–	–
338.15 K, 7500 kPa	1069.06	–	–
338.15 K, 10000 kPa	1070.99	–	–
338.15 K, 20000 kPa	1077.96	–	–
338.15 K, 30000 kPa	1084.52	–	–
338.15 K, 40000 kPa	1090.69	–	–
338.15 K, 50000 kPa	1096.51	–	–
338.15 K, 60000 kPa	1102.02	–	–

101.33 kPa, Vibrating tube method
Details	mass density [kg/m3]
278.15 K	1122.94
280.65 K	1120.49
283.15 K	1118.02
285.65 K	1115.56
288.15 K	1113.09
290.65 K	1110.62
293.15 K	1108.15
295.65 K	1105.68
298.15 K	1103.2
300.65 K	1100.73
303.15 K	1098.25
305.65 K	1095.77
308.15 K	1093.29
310.65 K	1090.8
313.15 K	1088.32
315.65 K	1085.82
318.15 K	1083.33
320.65 K	1080.83
323.15 K	1078.33
325.65 K	1075.83
328.15 K	1073.32
330.65 K	1070.81
333.15 K	1068.3
335.65 K	1065.78
338.15 K	1063.25
